Non-standard residues stand in square brackets, D forms with d. Residues, ends and D or L forms follow the SMILES beside them. ξ: configuration not given here. *: point of attachment. Isovaleryl = CC(C)CC(=O)*; ξChg = NC(C(=O)O)C1CCCCC1
Which melting point does the source give for `CCOC(=O)[C@H](C)NC(=O)C(NC(=O)CC(C)C)C1CCCCC1` (stereo partly drawn) [Example 128, N-[N-(Isovaleryl)-2-amino-2-cyclohexylacetyl]-L-alanine Ethyl Ester] (Isovaleryl-[ξChg]-Ala-OEt) here?
Its melting point is 220 to 224 °C.

With `COC(=O)[C@H](Cc1ccccc1)NC(=O)[C@H](C)NC(=O)CC1CC1` [Example 72, N-[N-(Cyclopropylacetyl)-L-alaninyl]-L-phenylalanine Methyl Ester] as the compound, how does the melting point read?
Its melting point is 128 to 131 °C.

Which melting point does the source give for `CC(C)C[C@H](NC(=O)[C@H](C)NC(=O)Cc1cc(F)cc(F)c1)C(=O)OC(C)(C)C` [Example 40, N-[N-(3,5-Difluorophenylacetyl)-L-alaninyl]-L-leucine tert-Butyl Ester] here?
The melting point was 128 °C.

For `CCOC(=O)C(NC(=O)[C@H](C)NC(=O)Cc1cc(F)cc(F)c1)C1CCCCC1` (stereo partly drawn) [Example 126, Ethyl N-[N-(3,5-Difluorophenylacetyl)-L-alaninyl]-2-amino-2-cyclohexylacetate], which melting point is on record?
Its melting point is 146 to 150 °C.

For `COC(=O)[C@@H](NC(=O)[C@H](CCSC)NC(=O)Cc1cc(F)cc(F)c1)c1ccccc1` [Example 193, N-[N-(3,5-Difluorophenylacetyl)-L-methioninyl]-L-phenylglycine Methyl Ester], which melting point is on record?
Its melting point is 189.3 °C.

With `CC[C@H](NC(=O)Cc1cc(F)cc(F)c1)C(=O)N[C@H](C(=O)OC(C)(C)C)c1ccccc1` [Example 191, N-[N-(3,5-Difluorophenylacetyl)-(S)-2-aminobutanoyl]-L-phenylglycine tert-Butyl Ester] as the compound, how does the melting point read?
The melting point was 138.7 to 140 °C.

For `COC(=O)C1CCCCN1C(=O)[C@H](C)NC(=O)Cc1cc(F)cc(F)c1` (stereo partly drawn) [Example 218, Methyl 1-[N-(3,5-Difluorophenylacetyl)-L-alaninyl]piperidine-2-carboxylate], which melting point is on record?
Its melting point is 114 to 118 °C.

Which melting point does the source give for `CCOC(=O)C(NC(=O)[C@H](C)NC(=O)Cc1cc(F)cc(F)c1)c1ccc2sccc2c1` (stereo partly drawn) [Example 177, Ethyl N-[N-(3,5-Difluorophenylacetyl)-L-alaninyl]-2-amino-2-(benzothiophen-5-yl)acetate] here?
Its melting point is 126.5 to 127.5 °C.

With `COC(=O)[C@@H](NC(=O)[C@@H](NC(=O)Cc1cc(F)cc(F)c1)C1CC1)c1ccccc1` [Example 257, N-[N-(3,5-Difluorophenylacetyl)-(S)-2-amino-2-(cyclopropyl)acetyl]-L-phenylglycine Methyl Ester] as the compound, how does the melting point read?
Its melting point is 225 to 226.5 °C.

Which melting point does the source give for `COC(=O)[C@H](Cc1ccc(OCC(=O)OC(C)(C)C)cc1)NC(=O)[C@H](C)NC(=O)Cc1cc(F)cc(F)c1` [Example 14, N-[N-(3,5-Difluorophenylacetyl)-L-alaninyl]-L-4-[(tert-butyloxycarbonyl)methoxy]phenylalanine Methyl Ester] here?
The melting point was 116 to 119 °C.

Which melting point does the source give for `CCOC(=O)[C@H](C)NC(=O)[C@H](C)NC(=O)Cc1cc(F)cc(F)c1` [Example 85, N-[N-(3,5-Difluorophenylacetyl)-L-alaninyl]-L-alanine Ethyl Ester] here?
The melting point was 197 to 199 °C.

With `COC(=O)[C@@H](NC(=O)CC1CCCC[C@@H]1NC(=O)Cc1cc(F)cc(F)c1)c1ccccc1` (stereo partly drawn) [Example 225, N-[N-(3,5-Difluorophenylacetyl)-2-(S)-aminocyclohexylacetyl]-L-phenylglycine Methyl Ester] as the compound, how does the melting point read?
Its melting point is 234.4 °C.

For `C[C@H](NC(=O)CC1CC1)C(=O)N[C@H](C(=O)OC(C)(C)C)c1ccccc1` [Example 189, N-[N-(Cyclopropylacetyl)-L-alaninyl]-L-phenylglycine tert-Butyl Ester], which melting point is on record?
The melting point was 105 to 107 °C.

Which melting point does the source give for `CCOC(=O)[C@H](Cc1ccc(O)cc1)NC(=O)[C@H](C)NC(=O)Cc1cccc([N+](=O)[O-])c1` [Example 81, N-[N-(3-Nitrophenylacetyl)-L-alaninyl]-L-tyrosine Ethyl Ester] here?
Its melting point is 117 to 119 °C.

With `C[C@H](NC(=O)Cc1cc(F)cc(F)c1)C(=O)N[C@@H](Cc1ccccc1)C(=O)OCc1ccccc1` [Example 37, N-[N-(3,5-Difluorophenylacetyl)-L-alaninyl]-L-phenylalanine Benzyl Ester] as the compound, how does the melting point read?
The melting point was 170 to 171 °C.

For `CC[C@H](NC(=O)[C@H](C)NC(=O)Cc1cc(F)cc(F)c1)C(=O)OC` [Example 160, Methyl N-[N-(3,5-difluorophenylacetyl)-L-alaninyl]-(S)-2-aminobutanoate], which melting point is on record?
Its melting point is 103 to 106 °C.

Which melting point does the source give for `COC(=O)[C@@H](NC(=O)[C@H](C)NC(=O)Cc1ccccc1)C(C)C` [Example 207, N-[N-(Phenylacetyl)-L-alaninyl]-L-valine Methyl Ester] (HELM PEPTIDE1{[O=C(Cc1ccccc1)[*:2]].A.V.[CO[*:1]]}$$$$V2.0) here?
The melting point was 112 to 115 °C.

With `COC(=O)C(NC(=O)[C@H](C)NC(=O)Cc1cc(F)cc(F)c1)c1cccs1` (stereo partly drawn) [Example 176, Methyl N-[N-(3,5-Difluorophenylacetyl)-L-alaninyl]-2-amino-2-(2-thienyl)acetate] as the compound, how does the melting point read?
Its melting point is 161 to 162 °C.

For `CCC[C@H](NC(=O)Cc1cc(F)cc(F)c1)C(=O)N[C@H](C(=O)OC)c1ccccc1` [Example 253, N-[N-(3,5-Difluorophenylacetyl)-L-norvalinyl]-L-phenylglycine Methyl Ester], which melting point is on record?
Its melting point is 204 to 205 °C.

Which melting point does the source give for `C[C@H](NC(=O)Cc1cc(F)cc(F)c1)C(=O)NCC(=O)OCCCc1ccccc1` [Example 46, N-[N-(3,5-Difluorophenylacetyl)-L-alaninyl]glycine 3-Phenylpropyl Ester] here?
The melting point was 137 °C.

Which melting point does the source give for `COC(=O)[C@H](CCc1ccccc1)NC(=O)[C@H](C)NC(=O)Cc1cc(F)cc(F)c1` [Example 44, Methyl N-[N-(3,5-Difluorophenylacetyl)-L-alaninyl]-(S)-2-amino-4-phenylbutanoate] here?
Its melting point is 147 to 149.5 °C.

For `CCOC(=O)C(NC(=O)[C@H](C)NC(=O)Cc1cc(F)cc(F)c1)c1ccncc1` (stereo partly drawn) [Example 66, Ethyl N-[N-(3,5-Difluorophenylacetyl)-L-alaninyl]-2-amino-2-(4-pyridyl)acetate], which melting point is on record?
Its melting point is 175 to 181 °C.

Which melting point does the source give for `NC(C(=O)NC(=O)C(NC(=O)Cc1cc(F)cc(F)c1)c1ccccc1)c1ccccc1` (mixture of isomers) [Example 248, N-[N-(3,5-Difluorophenylacetyl)-D,L-phenylglycinyl]-D,L-phenylglycinamide] here?
The melting point was 285.5 to 288.5 °C.

For `CCCC[C@H](NC(=O)[C@H](C)NC(=O)Cc1cc(F)cc(F)c1)C(=O)OC` [Example 1, Methyl N-[N-(3,5-Difluorophenylacetyl)-L-alaninyl]-(S)-2-aminohexanoate], which melting point is on record?
The melting point was 142 to 143 °C.

For `CC(C)COC(=O)[C@H](C)NC(=O)[C@@H](NC(=O)CC(C)C)c1ccccc1` [Example 79, N-[N-(Isovaleryl)-L-phenylglycinyl]-L-alanine iso-butyl Ester], which melting point is on record?
Its melting point is 181 to 186 °C.

For `C[C@H](NC(=O)CC1CCCC1)C(=O)N[C@H](C(=O)OC(C)(C)C)c1ccccc1` [Example 328, N-[N-(Cyclopentaneacetyl)-L-alaninyl]-L-phenylglycine tert-Butyl Ester], which melting point is on record?
Its melting point is 133 to 138 °C.

Which melting point does the source give for `COC(=O)C(NC(=O)[C@H](C)NC(=O)Cc1cc(F)cc(F)c1)c1ccc(OC)cc1` (stereo partly drawn) [Example 64, Methyl N-[N-(3,5-Difluorophenylacetyl)-L-alaninyl]-2-amino-2-(4-methoxyphenyl)acetate] here?
Its melting point is 170 to 174 °C.

For `COC(=O)[C@@H](NC(=O)[C@H](NC(=O)Cc1cc(F)cc(F)c1)c1cccs1)c1ccccc1` [Example 259, N-[N-(3,5-Difluorophenylacetyl)-(S)-2-amino-2-(thien-2-yl)acetyl]-L-phenylglycine Methyl Ester], which melting point is on record?
Its melting point is 230.8 °C.

For `COC(=O)[C@H](CC(C)C)NC(=O)[C@H](C)NC(=O)Cc1ccccc1` [Example 201, N-[N-(Phenylacetyl)-L-alaninyl]-L-leucine Methyl Ester] (HELM PEPTIDE1{[O=C(Cc1ccccc1)[*:2]].A.L.[CO[*:1]]}$$$$V2.0), which melting point is on record?
The melting point was 102.5 to 105 °C.

For `O=C(Cc1cc(F)cc(F)c1)N[C@H](C(=O)N[C@H](CO)c1ccccc1)c1ccccc1` [Example 245, N-[N-(3,5-Difluorophenylacetyl)-L-phenylglycinyl]-L-phenylglycinol], which melting point is on record?
The melting point was 231.4 °C.

For `COC(=O)C(NC(=O)[C@H](C)NC(=O)Cc1cc(F)cc(F)c1)c1cc2cc(Cl)ccc2s1` (stereo partly drawn) [Example 173, Methyl N-[N-(3,5-Difluorophenylacetyl)-L-alaninyl]-2-amino-2-(5-chlorobenzothiophen-2-yl)acetate], which melting point is on record?
Its melting point is 189 to 190 °C.

Which melting point does the source give for `COC(=O)CNC(=O)[C@H](C)NC(=O)Cc1ccccc1` [Example 206, N-[N-(Phenylacetyl)-L-alaninyl]glycine Methyl Ester] (HELM PEPTIDE1{[O=C(Cc1ccccc1)[*:2]].A.G.[CO[*:1]]}$$$$V2.0) here?
Its melting point is 152 to 153.5 °C.

For `COC(=O)[C@H](Cc1ccc(OCCCN(C)C)cc1)NC(=O)[C@H](C)NC(=O)Cc1cc(F)cc(F)c1` [Example 13, N-[N-(3,5-Difluorophenylacetyl)-L-alaninyl]-L-4-[3-(N,N-dimethylamino)propoxy]phenylalanine Methyl Ester], which melting point is on record?
The melting point was 153 to 155 °C.

With `CCOC(=O)C(NC(=O)[C@H](C)NC(=O)Cc1cc(F)cc(F)c1)c1cc2ccccc2s1` (stereo partly drawn) [Example 174, Ethyl N-[N-(3,5-Difluorophenylacetyl)-L-alaninyl]-2-amino-2-(benzothiophen-2-yl)acetate] as the compound, how does the melting point read?
Its melting point is 189 to 190 °C.

For `C=CCCC(=O)N[C@@H](C)C(=O)N[C@@H](Cc1ccccc1)C(=O)OC` [Example 11, N-[N-(Pent-4-enoyl)-L-alaninyl]-L-phenylalanine Methyl Ester], which melting point is on record?
Its melting point is 125.5 to 126.5 °C.

With `COC(=O)CNC(=O)[C@H](C)NC(=O)Cc1cc(F)cc(F)c1` [Example 28, N-[N-(3,5-Difluorophenylacetyl)-L-alaninyl]glycine Methyl Ester] as the compound, how does the melting point read?
The melting point was 158 to 160 °C.

Which melting point does the source give for `COC(=O)[C@H](Cc1ccccc1)NC(=O)[C@H](C)NC(=O)CC1CCCCC1` [Example 67, N-[N-(Cyclohexylacetyl)-L-alaninyl]-L-phenylalanine Methyl Ester] here?
The melting point was 156 to 158 °C.

For `COC(=O)C(NC(=O)[C@H](C)NC(=O)Cc1cc(F)cc(F)c1)c1cccc(OC)c1` (stereo partly drawn) [Example 63, Methyl N-[N-(3,5-Difluorophenylacetyl)-L-alaninyl]-2-amino-2-(3-methoxyphenyl)acetate], which melting point is on record?
The melting point was 163 to 170 °C.

Source: patent US6476263B1, “Compounds for inhibiting β-amyloid peptide release and/or its synthesis” (Elan Pharmaceuticals, Inc., priority 1996, dated 2002)
